According to PubChem BioAssay (NCI):
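Test compounds were applied to cells in 96-well plates for 48 hours at 5 doses. TGI is the concentration that stops growth completely.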

How the values were obtained:
Assay in all cases: NCI tumour cell line growth inhibition, 48 h
[1] = system: 786-0 renal
[2] = system: A498 renal
[3] = system: A549 NSCLC
[4] = system: ACHN renal
[5] = system: BT-549 breast
[6] = system: CAKI-1 renal
[7] = system: CCRF-CEM leukemia
[8] = system: EKVX NSCLC
[9] = system: HCC-2998 colon
[10] = system: HCT-15 colon
[11] = system: HL-60(TB) leukemia
[12] = system: HS 578T breast
[13] = system: HT29 colon
[14] = system: IGROV1 ovarian
[15] = system: K-562 leukemia
[16] = system: KM12 colon
[17] = system: LOX IMVI melanoma
[18] = system: M14 melanoma
[19] = system: MCF7 breast
[20] = system: MOLT-4 leukemia
[21] = system: NCI-H226 lung
[22] = system: NCI-H23 lung
[23] = system: NCI-H460 lung
[24] = system: NCI/ADR-RES ovarian
[25] = system: OVCAR-3 ovarian
[26] = system: OVCAR-4 ovarian
[27] = system: OVCAR-5 ovarian
[28] = system: OVCAR-8 ovarian
[29] = system: PC-3 prostate
[30] = system: RPMI-8226 leukemia
[31] = system: RXF 393 renal
[32] = system: SF-268 CNS
[33] = system: SF-539 CNS
[34] = system: SK-MEL-28 melanoma
[35] = system: SK-MEL-5 melanoma
[36] = system: SK-OV-3 ovarian
[37] = system: SN12C renal
[38] = system: SNB-19 CNS
[39] = system: SNB-75 CNS
[40] = system: SR leukemia
[41] = system: SW-620 colon
[42] = system: TK-10 renal
[43] = system: U251 CNS
[44] = system: UACC-62 melanoma
[45] = system: UO-31 renal
[46] = system: HOP-92 NSCLC

Measured: TGI

O=C1/C(=C/c2cccc3ccccc23)Cc2ccccc21
73.3 µM: [12]
65.7 µM: [32]
47.2 µM: [36]
38.9 µM: [19]
> 100 µM: [2] | [3] | [4] | [6] | [7] | [8] | [9] | [10] | [11] | [13] | [14] | [15] | [16] | [17] | [18] | [20] | [23] | [24] | [27] | [28] | [30] | [34] | [35] | [37] | [39] | [40] | [41] | [42] | [44] | [45]
53 µM: [26]
49.6 µM: [21]
52 µM: [43]
91.3 µM: [25]
64 µM: [38]
54.3 µM: [29]
39.2 µM: [31]
29.9 µM: [5]
65.8 µM: [22]
48.3 µM: [1]
79.4 µM: [33]

COc1ccc(C2C3=C(CCCC3=O)N(c3ccccc3)C3=C2C(=O)CCC3)cc1
> 100 µM: [1] | [2] | [3] | [4] | [5] | [6] | [7] | [8] | [10] | [11] | [46] | [12] | [13] | [14] | [15] | [16] | [17] | [18] | [19] | [20] | [21] | [22] | [23] | [24] | [25] | [26] | [27] | [29] | [30] | [32] | [33] | [34] | [36] | [37] | [38] | [39] | [40] | [41] | [42] | [43] | [44] | [45]
78.7 µM: [31]
